The term Emax denotes the maximal effect, on the per cent scale that the assay sets. The term EC50 denotes the concentration at which the effect is half-maximal.

The values below come from US9029563B2, “Substituted 1-benzylindolin-2-one analogs as positive allosteric modulators of muscarinic acetylcholine M1 receptors” (Vanderbilt University, priority 2012, dated 2015).

Molecules are shown by their SMILES.

In the experiment the target is T1, mAChR M1 (UniProt P08482).
T1 sequence (P08482 1-460): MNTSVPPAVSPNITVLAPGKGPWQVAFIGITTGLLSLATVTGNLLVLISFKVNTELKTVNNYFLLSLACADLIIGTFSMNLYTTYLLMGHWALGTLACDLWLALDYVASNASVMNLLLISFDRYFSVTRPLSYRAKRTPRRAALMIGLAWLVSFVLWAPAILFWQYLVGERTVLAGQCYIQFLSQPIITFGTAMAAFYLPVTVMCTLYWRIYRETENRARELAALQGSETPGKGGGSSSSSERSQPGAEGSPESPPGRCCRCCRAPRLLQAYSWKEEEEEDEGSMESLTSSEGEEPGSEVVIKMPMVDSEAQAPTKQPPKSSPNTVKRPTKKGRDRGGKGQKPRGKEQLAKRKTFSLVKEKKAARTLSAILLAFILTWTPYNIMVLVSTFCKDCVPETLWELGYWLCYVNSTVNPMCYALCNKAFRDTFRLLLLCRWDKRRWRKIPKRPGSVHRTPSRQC
Briefly: mAChR M1 cell-based functional assay (calcium mobilization, PAM mode). The following applies: for Emax: Percent of AChmax activity in presence of 30 μM test compound; for EC50: potentiation of EC20 acetylcholine response, calcium flux in CHO-K1 cells expressing mAChR M1, >10 μM is estimated for low potency compounds without plateau. From the text:
Chinese hamster ovary (CHO-K1) cells stably expressing rat (r)M1 were purchased from the American Type Culture Collection and cultured according to their indicated protocol. CHO cells stably expressing human (h)M2, hM3, and hM5 were described previously (Levey et al., 1991); hM1 and hM4 cDNAs were purchased from Missouri S&T cDNA Resource; rM4 cDNA was provided by T. I. Bonner (National Institutes of Health, Bethesda, Md.). rM2 and rM3 were cloned from a rat brain cDNA library and sequence verified. hM1, rM2, rM3, hM4, and rM4 cDNAs were used to stably transfect CHO-K1 cells purchased from the American Type Culture Collection using Lipofectamine-2000. To make stable rM2, hM2, hM4, and rM4 cell lines for use in calcium mobilization assays, these cells also were stably transfected with a chimeric G-protein (Gqi5) (provided by B.R. Conklin, University of California, San Francisco) using Lipofectamine 2000. rM1, hM1, rM3, hM3, rM5, and hM5 cells were grown in Ham's F-12 medium containing 10% heat-inactivated fetal bovine serum (FBS), 20 mM HEPES, and 50 μg/mL G418 sulfate. rM2-Gqi5, hM2-Gqi5, and hM4-Gqi5 cells were grown in the same medium also containing 500 μg/mL Hygromycin B. Stable rM4-Gqi5 cells were grown in DMEM containing 10% heat-inactivated FBS, 20 mM HEPES, 400 μg/mL G418 sulfate, and 500 μg/mL Hygromycin B.
For high throughput measurement of agonist-evoked increases in intracellular calcium, CHO-K1 cells stably expressing muscarinic receptors were plated in growth medium lacking G418 and hygromycin at 15,000 cells/20 μL/well in Greiner 384-well black-walled, tissue culture (TC)-treated, clear-bottom plates (VWR). Cells were incubated overnight at 37° C. and 5% CO2. The next day, cells were washed using an ELX 405 (BioTek) with four washes (80 μL) of assay buffer then aspirated to 20 μL. Next, 20 μL of 16 μM Fluo-4/acetoxymethyl ester (Invitrogen, Carlsbad, Calif.) prepared as a 2.3 mM stock in DMSO and mixed in a 1:1 ratio with 10% (w/v) Pluronic F-127 and diluted in assay buffer was added to the wells and the cell plates were incubated for 50 min at 37° C. and 5% CO2. Dye was removed by washing with the ELX 405 (four 80 μL washes of assay buffer) then aspirated to 20 μL. Compound master plates were formatted in an 11 point CRC format (1:3 dilutions) in 100% DMSO with a starting concentration of 10 mM using the BRAVO liquid handler (Agilent). Test compound CRCs were then transferred to daughter plates (240 nL) using the Echo acoustic plate reformatter (Labcyte, Sunnyvale, Calif.) and then diluted into assay buffer (40 μL) to a 2× stock using a Thermo Fisher Combi (Thermo Fisher Scientific, Waltham, Mass.).
Calcium flux was measured using the Functional Drug Screening System (FDSS) 6000 (Hamamatsu Corporation, Tokyo, Japan) as an increase in the fluorescent static ratio. Compounds were applied to cells (20 μL, 2×) using the automated system of the FDSS 6000 at 4 s into the 300 s protocol and the data were collected at 1 Hz. At 144 s into the 300 s protocol, 10 μL of an EC20 concentration of the muscarinic receptor agonist acetylcholine was added (5×), followed by the addition of 12 μL an EC80 concentration of acetylcholine at the 230 s time point (5×). Agonist activity was analyzed as a concentration-dependent increase in calcium mobilization upon compound addition. Positive allosteric modulator activity was analyzed as a concentration-dependent increase in the EC20 acetylcholine response. Antagonist activity was analyzed as a concentration-dependent decrease in the EC80 acetylcholine response. Concentration-response curves were generated using a four-parameter logistical equation in XLFit curve fitting software (IDBS, Bridgewater, N.J.) for Excel (Microsoft, Redmond, Wash.) or Prism (GraphPad Software, Inc., San Diego, Calif.).
The calcium mobilization assay was also used to determine “efficacy”. […]

Turning to `CN(C)C1(C)C(=O)N(Cc2ccc(-c3cnn(C)c3)cc2)c2ccccc21` (racemic) [Compound B7, 3-(dimethylamino)-3-methyl-1-(4-(1-methyl-1H-pyrazol-4-yl)benzyl)indolin-2-one], the Emax is on record as 43% and the EC50 is 5.5 µM.
In the same order, the values of `Cn1cc(-c2ccc(CN3C(=O)C(C)(N)c4ccccc43)cc2)cn1` (racemic) [Compound B15, 3-amino-3-methyl-1-(4-(1-methyl-1H-pyrazol-4-yl)benzyl)indolin-2-one] are 28% and greater than 10 µM.
In the same order, the values of `Cn1cc(-c2ccc(CN3C(=O)C(O)(C(F)(F)F)c4ccccc43)c(F)c2)cn1` (single isomer, unassigned) [Compound B2, 1-(2-fluoro-4-(1-methyl-1H-pyrazol-4-yl)benzyl)-3-hydroxy-3-(trifluoromethyl)indolin-2-one] are 68% and 3.4 µM.
Regarding `Cn1cc(-c2ccc(CN3C(=O)C(O)(C(F)(F)F)c4ccccc43)c(F)c2)cn1` (single isomer, unassigned) [Compound B18, 1-(2-fluoro-4-(1-methyl-1H-pyrazol-4-yl)benzyl)-3-hydroxy-3-(trifluoromethyl)indolin-2-one], the EC50 was greater than 30 µM.
Take `Cn1cc(-c2ccc(CN3C(=O)Cc4ccccc43)c(F)c2)cn1` [Compound B1]: the Emax is on record as 75% and the EC50 is 2.6 µM.
In the same order, the values of `Cn1cc(-c2ccc(CN3C(=O)C(O)(C(F)(F)F)c4cc(F)ccc43)c(F)c2)cn1` (stereo not shown) [Compound B3] are 35% and 3.9 µM.
As to `Cn1cc(-c2ccc(CN3C(=O)C(O)(CF)c4ccccc43)c(F)c2)cn1` (stereo not shown) [Compound B4, 1-(2-fluoro-4-(1-methyl-1H-pyrazol-4-yl)benzyl)-3-(fluoromethyl)-3-hydroxyindolin-2-one], the Emax was 52% and the 50% effective concentration (EC50) was 4.6 µM.
The corresponding values for `Cc1n[nH]cc1-c1ccc(CN2C(=O)C(O)(C(F)(F)F)c3ccccc32)c(F)c1` (stereo not shown) [Compound B5] are 37% and 4.9 µM.
In the same order, the values of `Cn1cc(-c2ccc(CN3C(=O)C(O)(C(F)(F)F)c4ccccc43)c(F)c2)cn1` (stereo not shown) [Compound B6, 1-(2-fluoro-4-(1-methyl-1H-pyrazol-4-yl)benzyl)-3-hydroxy-3-(trifluoromethyl)indolin-2-one] are 60% and 5 µM.
The corresponding values for `Cn1cc(-c2ccc(CN3C(=O)C(C)(O)c4ccccc43)c(F)c2)cn1` (stereo not shown) [Compound B8, 1-(2-fluoro-4-(1-methyl-1H-pyrazol-4-yl)benzyl)-3-hydroxy-3-methylindolin-2-one] are 52% and greater than 10 µM.
On to `CC1C(=O)N(Cc2ccc(-c3cnn(C)c3)cc2F)c2ccccc21` (stereo not shown) [Compound B9], for which the Emax stood at 55% and the EC50 was greater than 10 µM.
In the same order, the values of `Cn1cc(-c2ccc(CN3C(=O)C(O)(C(F)(F)F)c4ccccc43)c(Cl)c2)cn1` (stereo not shown) [Compound B10, 1-(2-chloro-4-(1-methyl-1H-pyrazol-4-yl)benzyl)-3-hydroxy-3-(trifluoromethyl)indolin-2-one] are 41% and greater than 10 µM.
The corresponding values for `Cn1cc(-c2ccc(CN3C(=O)C(O)(C(F)(F)F)c4ccccc43)cc2F)cn1` (stereo not shown) [Compound B11] are 45% and greater than 10 µM.
Regarding `Cn1cc(-c2ccc(CN3C(=O)C(O)(C(F)(F)F)c4ccccc43)cc2)cn1` (stereo not shown) [Compound B12], the Emax is on record as 63% and the EC50 was greater than 10 µM.
The corresponding values for `CC(C)n1cc(-c2ccc(CN3C(=O)C(O)(C(F)(F)F)c4ccccc43)c(F)c2)cn1` (stereo not shown) [Compound B13] are 38% and greater than 10 µM.
Take `CCn1cc(-c2ccc(CN3C(=O)C(O)(C(F)(F)F)c4ccccc43)c(F)c2)cn1` (stereo not shown) [Compound B14]: the Emax worked out at 45% and the EC50 was greater than 10 µM.
In the case of `CCCn1cc(-c2ccc(CN3C(=O)C(O)(C(F)(F)F)c4ccccc43)c(F)c2)cn1` (stereo not shown) [Compound B16], the Emax came to 31% and the EC50 is greater than 10 µM.
Consider `Cn1cc(-c2ccc(CN3C(=O)C(O)(C(F)(F)F)c4ccccc43)cn2)cn1` (stereo not shown) [Compound B17], for which the Emax stood at 54% and the EC50 is greater than 10 µM.
In the same order, the values of `Cn1cc(-c2ccc(CN3C(=O)C(O)(C(F)(F)F)c4ccccc43)c(F)c2)cn1` (stereo not shown) [Compound B19] are 54% and 3.64 µM.
The corresponding values for `Cn1cc(-c2ccc(CN3C(=O)C(N)c4ccccc43)c(F)c2)cn1` (stereo not shown) [Compound B20] are 46% and 1.36 µM.
As for `Cn1cc(-c2ccc(CN3C(=O)C(O)(C(F)(F)F)c4ccccc43)cc2F)cn1` (stereo not shown) [Compound B21], the Emax was 38% and the EC50 is greater than 10 µM.
For `CC(c1ccc(-c2cnn(C)c2)cc1F)N1C(=O)Cc2ccccc21` (stereo not shown) [Compound B24], the Emax is recorded as 44% and the EC50 was greater than 10 µM.
